Measured values as given in patent publication US9963467B2, “Boronic acid derivatives and therapeutic uses thereof” (Rempex Pharmaceuticals, Inc., priority 2014, dated 2018).

Experiments:
KP1004 (KPC-2) = assay: Biapenem potentiation (MPC@1), KP1004; conditions: read-out: Biapenem MIC KP1004
KP1086 (OXA-48) = assay: Biapenem potentiation (MPC@1), KP1086; conditions: read-out: Biapenem MIC KP1086
[1] = Serum stability of prodrugs, human serum; type: in vitro ADME; conditions: for Measured Initial Conc. in Serum / Conc. at t = 2 h / Conc. at t = 4 h: human serum, theoretical initial conc. 40 ug/mL; for Measured Initial Conc. in Serum: 37 degrees; for Conc. at t = 2 h / Conc. at t = 4 h: prodrug
Experimental: (§1) Prodrug strategy is one of the ways to achieve or increase oral bioavailability for therapeutic drugs. […] After a prodrug molecule is absorbed into systemic circulation, it should be hydrolyzed in the blood in order to release the active form. Hydrolysis of several prodrugs by rat and human serum were evaluated.
(§2) For all stability experiments the test compounds were treated with rat or human serum in Eppendorf tubes. Typically, 992 μl of serum was prewarmed at 37 degrees for 2 minutes and then 8 μl of a compound (at 5 mg/ml, 125×) was added to it to get a final concentration of […] and immediately mixed. Alternatively, serum stability might be tested at 1 mg/ml. […] After vortexing for 30 seconds, the tube was centrifuged in a microcentrifuge for 10 minutes at 15K rpm. Next, 100 μl of the supernatant was combined with 600 μl of water and injected on LC-MS using 0.1% formic acid in water for mobile phase A and 0.1% formic acid in methanol for mobile phase B on an ACE 5 C18 2.1×100 mm column with a 10 μL injection. The flow rate and gradient were adjusted as needed to give the desired resolution and run time. The pH of the mobile phase was adjusted if needed to improve the chromatography.
(§3) The time course of both the disappearance of a prodrug and the appearance of the active form of that prodrug is presented in Table 6 and Table 7. The active metabolites for all of the listed prodrugs are corresponding parent drugs

[2] = Serum stability of prodrugs, rat serum; type: in vitro ADME; conditions: theoretical initial conc. 40 ug/mL; for Measured Initial Conc. in Serum: 37 degrees; for Conc. at t = 2 h / Conc. at t = 4 h: prodrug
Experimental: as §1, §2, §3

| Measured Initial Conc. in Serum [1] | Conc. at t = 2 h [1] | Conc. at t = 4 h [1] | Measured Initial Conc. in Serum [2] | Conc. at t = 2 h [2] | Conc. at t = 4 h [2] | Structure (SMILES) | MIC (KP1004 (KPC-2)) | MIC (KP1086 (OXA-48)) | conversion of prodrug to active metabolite ([1]; serum (Tables 6 and 7), 4 hour experiment) |
| --- | --- | --- | --- | --- | --- | --- | --- | --- | --- |
|  |  |  |  |  |  | C[C@@H](O)[C@H]1C(=O)N2C(C(=O)[O-])=C(SC3Cn4cnc[n+]4C3)[C@H](C)[C@H]12 (stereo partly drawn) [Biapenem, reference compound] | > 10 µg/mL | > 10 µg/mL |  |
| 30.6 µg/mL | 1560 ng/mL | BQL | 28.1 µg/mL | 9.81 (t = 2 h) ug/mL | BQL | CCCC(=O)OCOC(=O)c1c(F)ccc2c1OB(O)[C@@H](NC(=O)CSC)C2 [Compound 13, (R)-butyryloxymethyl 7-fluoro-2-hydroxy-3-(2-(methylthio)acetamido)-3,4-dihydro-2H-benzo[e][1,2]oxaborinine-8-carboxylate] |  |  | completely converted to active metabolite |
| 33.2 µg/mL | 12800 ng/mL | 5320 ng/mL | 30.6 µg/mL | BQL | BQL | CSCC(=O)N[C@H]1Cc2ccc(F)c(C(=O)OCOC(=O)OC(C)C)c2OB1O [Compound 15, (R)-(isopropoxycarbonyloxy)methyl 7-fluoro-2-hydroxy-3-(2-(methylthio)acetamido)-3,4-dihydro-2H-benzo[e][1,2]oxaborinine-8-carboxylate] |  |  |  |

| Structure (SMILES) | Measured Initial Conc. in Serum [1] | Conc. at t = 2 h [1] | Conc. at t = 4 h [1] | Measured Initial Conc. in Serum [2] | Conc. at t = 2 h [2] | Conc. at t = 4 h [2] | MIC (KP1004 (KPC-2)) | MIC (KP1086 (OXA-48)) | conversion of prodrug to active metabolite ([1]; serum (Tables 6 and 7), 4 hour experiment) |
| --- | --- | --- | --- | --- | --- | --- | --- | --- | --- |
| CSCC(=O)N[C@H]1Cc2ccc(F)c(C(=O)OCOC(C)=O)c2OB1O [Compound 14, (R)-acetoxymethyl 7-fluoro-2-hydroxy-3-(2-(methylthio)acetamido)-3,4-dihydro-2H-benzo[e][1,2]oxaborinine-8-carboxylate] | 36.8 µg/mL | 5000 ng/mL | 1130 ng/mL | 39.6 µg/mL | BQL | BQL |  |  |  |
